Holding throughout (assay): NCI 60 cell one-dose screening (SRB)
What all share (assay type): cell-based

For one experiment, the system named is 786-0. Conditions: Homo sapiens; 786-0, Renal Cancer; single dose 10 µM, 48 h; read-out: Percentage of cellular growth inhibition. Put shortly:
(§1)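 Growth percentage, referenced to time-zero and drug-free wells and measured by SRB absorbance (515 nm), was subtracted from 100 to give inhibition. Cells had been pre-grown 24 h, then incubated 48 h at 37 °C, 5% CO2 with test compound at 10 µM final.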

The next experiment relates to A549/ATCC. Conditions: Homo sapiens, Non-Small Cell Lung Cancer, single dose 10 µM, 48 h, read-out: Percentage of cellular growth inhibition. Put shortly: as §1
A further experiment has as its system BT-549. The settings on record: Homo sapiens; BT-549, Breast Cancer; single dose 10 µM, 48 h; read-out: Percentage of cellular growth inhibition. The method, boiled down:
as §1

A further experiment has as its system CAKI-1. The settings on record: Homo sapiens; CAKI-1, Renal Cancer; single dose 10 µM, 48 h; read-out: Percentage of cellular growth inhibition. Put shortly: as §1
In the next experiment the test system is EKVX. Conditions: Homo sapiens, Non-Small Cell Lung Cancer, single dose 10 µM, 48 h, read-out: Percentage of cellular growth inhibition. Put shortly:
as §1

A further experiment concerns HCC-2998. Conditions: Homo sapiens; HCC-2998, Colon Cancer; single dose 10 µM, 48 h; read-out: Percentage of cellular growth inhibition. The method, boiled down:
as §1

The test system of a further experiment is HOP-62. Conditions: Homo sapiens; HOP-62, Non-Small Cell Lung Cancer; single dose 10 µM, 48 h; read-out: Percentage of cellular growth inhibition. The method, boiled down:
as §1

In another experiment the test system is IGROV1. Conditions: Homo sapiens, IGROV-1; IGROV1, Ovarian Cancer; single dose 10 µM, 48 h; read-out: Percentage of cellular growth inhibition. The method, boiled down:
as §1

A further experiment has as its system K-562. The settings on record: Homo sapiens, K562; K-562, Leukemia; single dose 10 µM, 48 h; read-out: Percentage of cellular growth inhibition. Put shortly: as §1
A further experiment deals with M14. Conditions: Homo sapiens; M14, Melanoma; single dose 10 µM, 48 h; read-out: Percentage of cellular growth inhibition. Put shortly:
as §1

The next experiment relates to NCI-H226. Conditions: Homo sapiens; NCI-H226, Non-Small Cell Lung Cancer; single dose 10 µM, 48 h; read-out: Percentage of cellular growth inhibition. Put shortly: as §1
A further experiment has as its system NCI-H322M. Conditions: Homo sapiens, Non-Small Cell Lung Cancer, single dose 10 µM, 48 h, read-out: Percentage of cellular growth inhibition. The method, boiled down:
as §1

Another experiment deals with NCI/ADR-RES. The settings on record: Homo sapiens, Ovarian Cancer, single dose 10 µM, 48 h, read-out: Percentage of cellular growth inhibition. The method, boiled down: as §1
In another experiment the test system is OVCAR-8. The settings on record: Homo sapiens; OVCAR-8, Ovarian Cancer; single dose 10 µM, 48 h; read-out: Percentage of cellular growth inhibition. The method, boiled down:
as §1

Another experiment deals with SF-268. The settings on record: Homo sapiens; SF-268, CNS Cancer; single dose 10 µM, 48 h; read-out: Percentage of cellular growth inhibition. The method, boiled down: as §1
The subject of the next experiment is SF-539. The settings on record: Homo sapiens; SF-539, CNS Cancer; single dose 10 µM, 48 h; read-out: Percentage of cellular growth inhibition. Put shortly: as §1
A further experiment has as its system SN12C. Conditions: Homo sapiens, Renal Cancer, single dose 10 µM, 48 h, read-out: Percentage of cellular growth inhibition. The method, boiled down:
as §1

The subject of another experiment is SNB-75. The settings on record: Homo sapiens; SNB-75, CNS Cancer; single dose 10 µM, 48 h; read-out: Percentage of cellular growth inhibition. Put shortly: as §1
The subject of another experiment is SW-620. The settings on record: Homo sapiens; SW-620, Colon Cancer; single dose 10 µM, 48 h; read-out: Percentage of cellular growth inhibition. The method, boiled down: as §1
In another experiment the test system is U251. The settings on record: Homo sapiens, U-251; U251, CNS Cancer; single dose 10 µM, 48 h; read-out: Percentage of cellular growth inhibition. Put shortly:
as §1

A further experiment relates to UACC-257. The settings on record: Homo sapiens; UACC-257, Melanoma; single dose 10 µM, 48 h; read-out: Percentage of cellular growth inhibition. Put shortly:
as §1

Results on 6 compounds are retold here after PMC9897788, “Design, synthesis and cytotoxic evaluation of novel bis-thiazole derivatives as preferential Pim1 kinase inhibitors with in vivo and in silico study” (Journal of Enzyme Inhibition and Medicinal Chemistry, 2023).

SMILES strings stand for the structures.

The term inhibition denotes the change of the read-out against control, counted positive when it falls. For the compound `Cc1csc(Nc2cccc(Nc3nc(C)cs3)c2)n1` [3a, N^1,N^3-bis(4-methylthiazol-2-yl)benzene-1,3-diamine], the inhibition at 10 µM with 786-0 was -10.8%; with A549/ATCC, -3.9%; in the experiment on BT-549, -24.4%; in the experiment on CAKI-1 it was 23.7%; in the experiment on EKVX it was 14.7%; with HCC-2998, -4.2%. Further, the inhibition at 10 µM was 3.5% in the experiment on HOP-62; 7.9% with IGROV1; 17.1% in the experiment on K-562; -7.3% in the experiment on M14; 24.2% with NCI-H226; 4.9% in the experiment with NCI-H322M. The inhibition at 10 µM in the experiment with NCI/ADR-RES stood at 20.1%; with OVCAR-8 it was 21.2%; with SF-268, 1.4%; in the experiment with SF-539, 7.9%; in the experiment with SN12C, 13.8%; with SNB-75 it was 1.6%. The values for the inhibition at 10 µM in the experiment with SW-620, in the experiment on U251 and with UACC-257 were -3.6%, 3.5% and -21.6%, respectively.

Regarding `CC(=O)c1sc(Nc2cccc(Nc3nc(C)c(C(C)=O)s3)c2)nc1C` [3b, 1,1’-(2,2’-(1,3-Phenylenebis(azanediyl))bis(4-methylthiazole-5,2-diyl))diethanone], the inhibition at 10 µM was 44.3% in the experiment with 786-0; 34.2% in the experiment with A549/ATCC; 53.8% with BT-549; 71.9% in the experiment on CAKI-1; 31.2% with EKVX; 19.9% with HCC-2998. Besides, the inhibition at 10 µM in the experiment on HOP-62 came out at 22.2%; in the experiment with IGROV1, 73.6%; with K-562, 59.1%; in the experiment with M14, 48.7%; with NCI-H226, 34.6%; in the experiment on NCI-H322M it was 38.3%. The inhibition at 10 µM in the experiment on NCI/ADR-RES is 44.4%; with OVCAR-8, 56.6%; with SF-268, 28.9%; in the experiment with SF-539, 27.8%; with SN12C it was 45%; in the experiment with SNB-75 it was 37.1%. For the same compound, the inhibition at 10 µM in the experiment with SW-620 amounted to 37.5%; with U251, 34.3%; in the experiment with UACC-257, 11.3%.

On to `CCOC(=O)c1sc(Nc2cccc(Nc3nc(C)c(C(=O)OCC)s3)c2)nc1C` [3c, Diethyl 2,2’-(1,3-phenylenebis(azanediyl))bis(4-methylthiazole-5-carboxylate)], for which the inhibition at 10 µM came to 5.5% in the experiment on 786-0; 12% in the experiment on A549/ATCC; 26.3% in the experiment on BT-549; 21.9% in the experiment with CAKI-1; 38.6% in the experiment on EKVX; 9.7% in the experiment with HCC-2998. For the same compound, the inhibition at 10 µM in the experiment on HOP-62 worked out at 1.2%; in the experiment with IGROV1, 23.4%; with K-562 it was 39.9%; in the experiment with M14, 14%; in the experiment with NCI-H226, 15%; with NCI-H322M, 3.8%. Also, the inhibition at 10 µM with NCI/ADR-RES came to 33.1%; with OVCAR-8, 17.3%; in the experiment with SF-268, 14.8%; in the experiment with SF-539 it was 16.2%; with SN12C, 11.8%; in the experiment with SNB-75, 2.6%. The inhibition at 10 µM worked out at 11.4% with SW-620, 16.7% in the experiment on U251 and 10.3% in the experiment with UACC-257.

`Cc1nc(Nc2cccc(Nc3nc(C)c(N=Nc4ccccc4)s3)c2)sc1N=Nc1ccccc1` [5a, N^1,N^3-bis(4-methyl-5-(phenyldiazenyl)thiazol-2-yl)benzene-1,3-diamine]: the inhibition at 10 µM in the experiment on 786-0 was 18.7%; with A549/ATCC it was 36.4%; in the experiment with BT-549, 5.8%; in the experiment with CAKI-1, 54.8%; in the experiment with EKVX, 16.9%; in the experiment on HCC-2998, -0.4%. Besides, the inhibition at 10 µM was 9.3% in the experiment with HOP-62; 52.2% in the experiment with IGROV1; 32.9% in the experiment with K-562; -7.6% with M14; 33% in the experiment on NCI-H226; 22.8% in the experiment with NCI-H322M. Also, the inhibition at 10 µM in the experiment with NCI/ADR-RES was determined as 10.2%; in the experiment with OVCAR-8, 33.4%; in the experiment on SF-268, 42.4%; in the experiment with SF-539 it was 15.4%; in the experiment on SN12C, 53.9%; with SNB-75 it was 38.4%. Moreover, the results for the inhibition at 10 µM in the experiment on SW-620, in the experiment with U251 and in the experiment with UACC-257 were 9.4%, 30.1% and 2.7%, respectively.

`CCOc1ccc(/N=N/c2sc(Nc3cccc(Nc4nc(C)c(/N=N/c5ccc(OCC)cc5)s4)c3)nc2C)cc1` [5b, N^1,N^3-bis(5-((4-ethoxyphenyl)diazinyl)-4-methylthiazol-2-yl)benzene-1,3-diamine]: the inhibition at 10 µM with 786-0 is 6.6%; in the experiment with A549/ATCC, 12.5%; in the experiment on BT-549, -3.7%; in the experiment on CAKI-1 it was 8.3%; with EKVX, 6.5%; in the experiment with HCC-2998, -4.6%. In addition, the inhibition at 10 µM is -1.3% with HOP-62; 9.7% in the experiment with IGROV1; -0.4% in the experiment on K-562; -7% in the experiment with M14; 14.8% in the experiment on NCI-H226; 11.4% in the experiment on NCI-H322M. Besides, the inhibition at 10 µM in the experiment with NCI/ADR-RES is 1.5%; in the experiment on OVCAR-8, -4%; in the experiment on SF-268, 4.5%; with SF-539, 0.1%; in the experiment with SN12C it was 4.7%; in the experiment with SNB-75, 7.8%. Moreover, the figures for the inhibition at 10 µM with SW-620, with U251 and in the experiment on UACC-257 were -0.3%, 3.3% and -9.2%, respectively.

For `c1ccc(-c2csc(Nc3cccc(Nc4nc(-c5ccccc5)cs4)c3)n2)cc1` [6a, N^1,N^3-bis(4-phenylthiazol-2-yl)benzene-1,3-diamine], the inhibition at 10 µM stood at 49.6% with 786-0; 55.8% in the experiment with A549/ATCC; 68.3% in the experiment with BT-549; 65.1% in the experiment with CAKI-1; 62.3% in the experiment with EKVX; 64.5% in the experiment with HCC-2998. Also, the inhibition at 10 µM in the experiment with HOP-62 came to 27%; with IGROV1 it was 65.9%; in the experiment with K-562, 73.4%; in the experiment on M14 it was 52.2%; in the experiment with NCI-H226 it was 33.8%; with NCI-H322M, 41.9%. Also, the inhibition at 10 µM with NCI/ADR-RES worked out at 73.9%; with OVCAR-8, 60.1%; in the experiment with SF-268 it was 59.4%; with SF-539, 42.3%; in the experiment with SN12C, 56.6%; in the experiment on SNB-75 it was 51.4%. Moreover, the inhibition at 10 µM in the experiment with SW-620 came out at 33.8%; in the experiment with U251 it was 48.8%; in the experiment on UACC-257, 53.9%.
